Series [1] in a line: LogP value in octanol/water. Conditions: for logP: octanol/water.
Series [2] can be described thus: Pour point observation according to ASTM D-97. Type of series: physicochemical. The source says:
A number of working examples were composed and tested for flow indicative of solidification point depression (e.g., pour point temperatures). The compositions tested herein are said to “pour or flow” at the indicated temperature when the PIC of each working example, vertically at rest on a substantially horizontal surface the cylindrical container (radius 1 inch, height 2 inches), flows observably within about 10 seconds when tipped to a substantially horizontal position. This amount of flow is known to be sufficient to indicate that the composition is pourable or pumpable for use in the field, where such concentrates are applied to one or more crude oil transportation or storage systems. The flowing samples are said to have a pour point at temperatures where the flow is observed. The pour point is above the solidification temperature for a given sample. The effect on pour point was observed according to ASTM D-97 test method (including storage for a half hour in a freezer set the associated temperature prior to observation for pour or flow).
The effect on pour point was observed according to ASTM D-97 test method (storage for at least one half hour in a freezer set at a specific temperature (e.g., −60° C.)). The specific low Log P molecules, amounts thereof, amounts of PI polymer, with the balance comprising a refined petroleum distillate or solvent such as HAN; and pour point observations according to ASTM D-97 are listed in Table 2 below.
A comparison of pour points was made between control samples having no low Log P molecules and samples including low Log P molecules to determine the total amount of pour point depression.
The relative amounts of pour point depression of PICs having combination nonyl phenol formaldehyde resin and alpha olefin/maleic anhydride (OMAC) copolymer PIs (specifically OMAC amide polymers), were tested by the ASTM D-97 method. A comparison of pour points was made between control samples having no low Log P molecules and samples including low Log P molecules to determine the total amount of pour point depression.
A low Log P ether molecules was tested for pour point depression in various PICs. The 2-methoxy ethanol was tested in various amounts in PICs and in PICs having various amounts of PI polymer (alkyl phenol formaldehyde resin) therein.

Where [3] appears, read: compounds of table 1 tested for pour point and freezing point.

Like-named read-outs stand apart in the source and are kept apart here.

What is called logP is a log measure of how a compound divides between an organic and an aqueous phase. In series [1], `COCC(C)OC(C)=O` (stereo not shown) came in with a logP of 0.73.

With `O=C1COCCN1` [3-Ketomorpholine, 3-ketomorpholine], the results for the logP in series [1] and in series [1] (Table 1) were -0.49 and −0.49, respectively.

Turning to `CN(C)CCO` [dimethylethanolamine], the “suitability as pour point depressant in PIC compositions” value (“suitability as pour point depressant” below) in series [2] (setting [3]) was “showed promise as pour point depressants”.

With `CC(C)O` [Isopropanol], in series [2] (setting [3]), the “suitability as pour point depressant” value was “showed promise as pour point depressants”.

`CCCCOCCO`: the logP in series [1] (LogP, Table 1) was 1.01.

In series [1] (Table 1), `O=C1CCCO1` [drawing 12] registered a logP of −0.57.

In series [1], `CC(C)CO` [Isobutanol] returned a logP of 0.8.

For `CN1CCCC1=O`, the logP in series [1] was determined as 0.07.

In series [1] (LogP, Table 1), `CN(C)CCO` [drawing 17] had a logP of -0.29.

As to `CC1COC(=O)O1` (stereo not shown), the logP in series [1] worked out at 0.37.

The compound `O=C1OCCO1` had a logP in series [1] of 0.01.

As for `CCOCCO`, the logP in series [1] is -0.05.

In the case of `CN1CCCCC1=O`, the logP in series [1] is 0.57.

On to `CC(O)CO` (stereo not shown) [1,2-propanediol], for which, in series [2] (setting [3]), the “suitability as pour point depressant” value is given as “showed promise as pour point depressants”.

Regarding `CO` [Methanol], in series [2], the “pour point depressed by” value is 70 °C and the “suitability as pour point depressant” value is on record as “showed promise as pour point depressants”. In series [1], this compound displayed a logP of -0.32. For the same compound, the logP in series [1] (Table 1) is given as −0.32.

Regarding `O=C1CCCCN1`, the logP in series [1] is 0.33.

As to `O=C1CCCN1` [2-Pyrollidone, 2-pyrrolidone], in series [2] (setting [3]), the “suitability as pour point depressant” value is reported as “showed promise as pour point depressants”. For the same compound, the log partition coefficient (logP) in series [1] was -0.18; in series [1] (Table 1), −0.18.

For orientation: Log P means a log measure of how a compound divides between an organic and an aqueous phase. Regarding 2-methoxy ethanol, in series [2] (setting [3]), the “suitability as pour point depressant” value is “showed promise as pour point depressants”. In addition, the “lowered the pour point by” value in series [2] (versus the PIC of working example 28) was “about 90 °C”. In addition, the logP in series [1] (Table 1) is listed as −0.43. Besides, the “Log P” value in series [1] (text b150) is recorded as −0.43.

Take `C1COCCO1` [1,4-dioxane]: the “suitability as pour point depressant” value in series [2] is “showed promise as pour point depressants”.

On to `CCCCC(CC)CO` (stereo not shown) [2-Ethyl Hexanol, 2-ethyl hexanol], for which the logP in series [1] and in series [1] (Table 1) was 2.87 throughout.

Consider `CNC(=O)NC`, for which the logP in series [1] was -0.25.

For the compound `O=C1CCCO1` [Butryolactone, butyrolactone], the “suitability as pour point depressant” value in series [2] is “showed promise as pour point depressants”. The same compound showed a logP in series [1] (LogP, Table 7, of the low LogP molecule type) of -0.59.

Compound `C1COCCO1` [drawing 23] returned a logP in series [1] of -0.23.

For the origin of these results see patent publication US10465854B2, “Temperature-stable paraffin inhibitor compositions” (Ecolab USA Inc., priority 2016, dated 2019).
